Assay results taken from patent US4835162A (priority 1987, dated 1989).
“Also recorded” adds a separate entry of the source. Where two headings read alike, the source gives them in different places.

Assays:
[1] = test system: rats; conditions: rat, in vivo
[2] = test system: rats; conditions: rat, in vivo; remark: listed apart in the source
[3] = test system: rats; conditions: rat, in vivo, iv
[4] = test system: rats; conditions: rat, in vivo; remark: listed apart in the source
[5] = test system: rats; conditions: rat, in vivo; remark: listed apart in the source
[6] = test system: rats; parameters: species or system Sprague-Dawley male rats; Blockade of (nicotine-induced prostration) EC50: unit not given here; conditions: rat, in vivo
[7] = molecular target: nicotinic receptors (rat brain membranes); assay type: binding; conditions: read-out: 3H-Nicotine Binding IC50
[8] = molecular target: nicotinic receptors (rat brain membranes); conditions: read-out: 3H-MCC Binding IC50
[9] = test system: rats; experiment: animal or person; conditions: Rattus norvegicus, iv, read-out: Antagonistic dose needed to completely block elevation in systolic blood pressure
[10] = molecular target: nicotinic receptors (rat brain membranes); assay type: binding; conditions: for IC50: pH 7, read-out: [3H]-MCC IC50
[11] = molecular target: nicotinic receptors (rat brain membranes); assay type: binding; conditions: for IC50: pH 7, read-out: [3H]-nicotine IC50; for Kd: read-out: Kd value in competition binding
[12] = test system: rats; experiment: animal or person; conditions: Rattus norvegicus, ip, 7 min, read-out: % Antagonism (seizures)
[13] = test system: nicotinic receptors (rat brain membranes); assay type: binding

CN1CCCC1c1cccnc1 (single isomer, unassigned; (-)) [(-)-nicotine]
Mortality ([1]; ip, 3 mg/kg): 8/10
signs after nicotine, in words [2]: prostration followed by tremors, fasciculations, cyanosis and labored breathing, and myoclonic seizures
Seizures ([2]; ip, 1.5 mg/kg): 10/10
increase in systolic blood pressure by nicotine [3]: 25%
Prostration EC50 [4]: 2
agonist or inactive on prostration, in words [4]: agonists
duration of prostration [4]: 2 to 4 min
onset of prostration response [4]: 1 to 3 s
respiratory effect, in words [4]: deep diaphragmatic breathing and a decreased respiratory rate
dose producing effect: prostration, in words [5]: prostration of all four limbs
times more effective than (+)-enantiomer of nicotine (prostration) [5]: 20 times
times more potent than N'-ethyl analogue (prostration) [5]: 10 times
times more potent than N'-propyl analogue (prostration) [5]: 40 times
times more potent than nicotonium analogue (prostration) [5]: 50 times
volume of nicotine solution required to produce prostration [5]: 1-2 μl of a 10^-3 M solution

CN(C)c1cccnc1 [3-dimethylaminopyridine]
agonist or inactive on prostration, in words [4]: agonists

Nc1c2c(nc3ccccc13)CCCC2 [9-aminotetrahydroacridine, reference compound]
Blockade of (nicotine-induced prostration) EC50 [6]: 200

CC(=O)OCCN(C)C [DMAE acetate]
Prostration EC50 [4]: > 1000
IC50 ([7]; pH 7.5): 50000 nM
IC50 ([8]; pH 7.5): 50000 nM

CN(C)CCOC(=O)c1ccccc1 [DMAE benzoate, dimethylaminoethyl benzoate]
% Antagonism (seizures) [2]: 45%
Seizures [2]: 5/9
ED100 [9]: 10 ± 25 mg/kg
Blockade of (nicotine-induced prostration) EC50 [6]: 100

CN(C)CCOC(N)=O [DMAE carbamate]
IC50 [10]: 10000 nM
Prostration EC50 [4]: 400
behavioral effect, in words [4]: only a similar effect
IC50 ([7]; pH 7.5): 10000 nM
IC50 ([8]; pH 7.5): 10000 nM
IC50 [11]: 10000 nM

CN(C)CCOC(=O)C1CCCCC1 [DMAE cyclohexylcarboxylate, dimethylaminoethyl cyclohexylcarboxylate]
% Antagonism (seizures) [2]: 50%
Seizures [2]: 4/8
seizures, in words [2]: about half of the rats exhibited seizures
IC50 [7]: 2000 nM
IC50 [8]: 4000 nM
Blockade of (nicotine-induced prostration) EC50 [6]: 100

CNC(=O)OCCN(C)C [DMAE methylcarbamate, dimethylaminoethylmethylcarbamate]
IC50 [10]: 800 nM
Prostration EC50 [4]: 300
behavioral effect, in words [4]: moderate weakness in the hindlimbs and head
IC50 ([7]; pH 7.5): 500 nM
IC50 ([8]; pH 7.5): 800 nM
IC50 [11]: 500 nM

CN(C)CCOC(=O)c1cccnc1 [DMAE nicotinate]
IC50 [7]: 200 nM
IC50 [8]: 200 nM
Blockade of (nicotine-induced prostration) EC50 [6]: 50
blockade of nicotine-induced prostration / antagonism, in words [6]: next in effectiveness and of comparable activity; also recorded: antagonistic to the nicotine-induced prostration

CN(C)CCOC(=O)Nc1ccccc1 [DMAE phenylcarbamate]
IC50 [7]: 100000 nM
IC50 [8]: 100000 nM

CN(C)CCOC(=S)Nc1ccccc1 [DMAE phenylthiocarbamate]
IC50 [7]: 70000 nM
IC50 [8]: 20000 nM

CN(C)CCOC(=O)CCC(=O)OCCN(C)C [DMAE succinate]
Prostration EC50 [4]: 1000
IC50 ([7]; pH 7.5): 50000 nM
IC50 ([8]; pH 7.5): 60000 nM

CNC(=O)OCCCN(C)C [DMAP methylcarbamate]
Prostration EC50 [4]: 100
IC50 ([7]; pH 7.5): 200 nM
IC50 ([8]; pH 7.5): 50 nM

CCN1CCCC1c1cccnc1 (stereo not shown) [N'--ethyl nornicotine, reference compound]
IC50 [10]: 100 nM
Prostration EC50 [4]: 20
IC50 ([7]; pH 7.5): 30 nM
IC50 ([8]; pH 7.5): 100 nM
decrease in affinity relative to nicotine [11]: 3 fold
IC50 [11]: 30 nM

CCCN1CCCC1c1cccnc1 (stereo not shown) [N'--propyl nornicotine, reference compound]
IC50 [10]: 1000 nM
Prostration EC50 [4]: 80
IC50 ([7]; pH 7.5): 600 nM
IC50 ([8]; pH 7.5): 1000 nM
decrease in affinity relative to nicotine [11]: 200 fold
IC50 [11]: 600 nM

CNC(=O)OC1CCN(Cc2ccccc2)CC1 [N--benzyl-4-piperdyl methylcarbamate]
IC50 [7]: > 100000 nM
IC50 [8]: > 100000 nM

CN1CCCC(OC(=O)c2ccccc2)C1 (stereo not shown) [N--methyl-3-piperdyl benzoate]
IC50 [7]: 30000 nM
IC50 [8]: 20000 nM
Blockade of (nicotine-induced prostration) EC50 [6]: 300

COc1ccc(CC2c3cc(OC)c(OC)cc3CCN2C)cc1OC (stereo not shown) [N--methyltetrahydro papavarine, reference compound]
IC50 [7]: 70000 nM
IC50 [8]: 80000 nM

C[N+](C)(C)CCOC(=O)C1CCCCC1 [TMAE cyclohexylcarboxylate, choline ester of cyclohexylcarboxylic acid]
% Antagonism (protection against nicotine mortality) [1]: 66%
Seizures [2]: 1/8
blockade of seizure activity [2]: 78%
responders at 25 mg/kg [12]: 78%
IC50 [7]: 80 nM
IC50 [8]: 50 nM
Blockade of (nicotine-induced prostration) EC50 [6]: 10

C[N+](C)(C)CCOC(=O)Cc1ccccc1 [TMAE phenylacetate]
IC50 [7]: 2000 nM
IC50 [8]: 300 nM
Blockade of (nicotine-induced prostration) EC50 [6]: 100
blockade of nicotine-induced prostration / antagonism, in words [6]: next in effectiveness and of comparable activity

C[N+](C)(C)CCOC(=O)Nc1ccccc1 [TMAE phenylcarbamate]
% Antagonism (protection against nicotine mortality) [1]: 50%
Mortality [1]: 4/10
Seizures [2]: 1/9
protection against seizures, in words [2]: almost complete protection
ED100 [9]: 5 ± 1 mg/kg
responders at 25 mg/kg [12]: 89%
IC50 [7]: 6000 nM
IC50 [8]: 800 nM
Blockade of (nicotine-induced prostration) EC50 [6]: 200
blockade of nicotine-induced prostration / antagonism, in words [6]: next in effectiveness and of comparable activity

C[N+](C)(C)CCOC(=S)Nc1ccccc1 [TMAE phenylthiocarbamate]
% Antagonism (protection against nicotine mortality) [1]: 63%
Mortality [1]: 3/10
ED100 [9]: 4 ± 0.8 mg/kg
IC50 [7]: 500 nM
IC50 [8]: 500 nM
Blockade of (nicotine-induced prostration) EC50 [6]: 50
blockade of nicotine-induced prostration / antagonism, in words [6]: next in effectiveness and of comparable activity

C[N+](C)(C)CCOC(=O)CCC(=O)OCC[N+](C)(C)C [TMAE succinate, succinylcholine]
Prostration EC50 [4]: 50

[3H]C([3H])([3H])[N+](C)(C)CCOC(=O)NC [[^3 H]-MCC, [^3 H]-methylcarbamyl choline]
displaceability of [3H]-MCC binding by muscarinic antagonists [10]: not [^3 H]-MCC binding, is displaceable by low concentrations of muscarinic antagonists; also recorded: not displaceable by muscarinic cholinergic antagonists
Bmax of [3H]-MCC binding [13]: 4.0×10^-14 moles/mg protein
Scatchard Kd and Bmax with unlabeled (-)-nicotine replacing MCC, in words [13]: comparable Kd and Bmax values
rate constant for association, [3H]-MCC ([13]; brain membranes, pH 7): 300000 M⁻¹ s⁻¹
rate constant for dissociation, [3H]-MCC ([13]; brain membranes, pH 7): 0.001 s⁻¹
Kd ([13]; read-out: Kd (Hill binding constant) of [3H]-MCC): 0.9 nM
Kd ([13]; read-out: Kd from rate constants, [3H]-MCC): 3.3 nM
Kd ([13]; read-out: Kd, Scatchard analysis of [3H]-MCC binding): 1.1 nM

CC(=O)OCC[N+](C)(C)C [acetylcholine]
Prostration EC50 [4]: 300
psychotropic action (prostration), in words [5]: inactive

CN1[C@@H]2CC[C@H]1C[C@@H](OC(=O)C(CO)c1ccccc1)C2 (stereo partly shown) [atropine, reference compound]
protection against nicotine mortality, in words [1]: ineffective
Seizures [2]: 6/6
responders at 25 mg/kg [12]: 0%
blockade of nicotine-induced prostration / antagonism, in words [6]: inactive

C[N+](C)(C)CCOC(N)=O [carbamylcholine]
Prostration EC50 [4]: 100

O=c1cccc2n1C[C@@H]1CNC[C@H]2C1 [cytisine, reference compound]
Prostration EC50 [4]: 2
IC50 ([7]; pH 7.5): 6 nM
IC50 ([8]; pH 7.5): 0.1 nM

C[N+](C)(C)CCCCCC[N+](C)(C)C [hexamethonium]
IC50 [11]: > 100000 nM
Kd [11]: > 100000 nM

CCN(CC)CC(=O)Nc1c(C)cccc1C [lidocaine, reference compound]
blockade of nicotine-induced prostration / antagonism, in words [6]: inactive

CN1C(CC(O)c2ccccc2)CCCC1CC(O)c1ccccc1 (stereo not shown) [lobelanidine, reference compound]
IC50 [7]: 20 nM
IC50 [8]: 5 nM
Blockade of (nicotine-induced prostration) EC50 [6]: 25

CN1[C@@H](CC(=O)c2ccccc2)CCC[C@H]1CC(=O)c1ccccc1 [lobelanine, reference compound]
IC50 [7]: 10 nM
IC50 [8]: 5 nM
Blockade of (nicotine-induced prostration) EC50 [6]: 25

CNC(=O)Oc1ccc2c(c1)[C@]1(C)CCN(C)[C@@H]1N2C [physostigmin, reference compound]
blockade of nicotine-induced prostration / antagonism, in words [6]: inactive

CCN(CC)CCOC(=O)c1ccc(N)cc1 [procaine, reference compound]
blockade of nicotine-induced prostration / antagonism, in words [6]: effectively block nicotine-induced prostration; also recorded: antagonists

CN(C)C(=O)Oc1cccc([N+](C)(C)C)c1 [prostigmin, reference compound]
blockade of nicotine-induced prostration / antagonism, in words [6]: inactive

N--benzylpiperidyl-methylcarbamate
IC50 [7]: > 100000 nM
IC50 [8]: > 100000 nM

α-bungarotoxin
IC50 [10]: > 100000 nM
IC50 [11]: > 100000 nM
Kd [11]: > 100000 nM
